Species: Rattus norvegicus
Assay: DrugMatrix - Regimen: Daily Repeat
Type: toxicity, organism-based, Sprague-Dawley
Parameters: regimen Daily Repeat, gender Male, age 6-8 weeks
Conditions: in vivo, po, route oral GAVAGE, vehicle 100 % WATER; for ABSOLUTE BASOPHIL / ABSOLUTE EOSINOPHIL / ABSOLUTE LYMPHOCYTE / ABSOLUTE MONOCYTE / ABSOLUTE SEGMENTED NEUTROPHIL / BASOPHIL / EOSINOPHIL / ERYTHROCYTE COUNT / HEMATOCRIT / HEMOGLOBIN / LEUKOCYTE COUNT / LYMPHOCYTE / MEAN CORPUSCULAR HEMOGLOBIN / MEAN CORPUSCULAR HEMOGLOBIN CONCENTRATION / MONOCYTE / NEUTROPHIL / NUCLEATED RED BLOOD CELLS / PLATELET COUNT: tissue Blood; for ALANINE AMINOTRANSFERASE / ALBUMIN / ALKALINE PHOSPHATASE / ASPARTATE AMINOTRANSFERASE / BLOOD UREA NITROGEN / CARBON DIOXIDE / CHLORIDE / CREATINE PHOSPHOKINASE / CREATININE / GLUCOSE / LACTATE DEHYDROGENASE / LIPASE / PHOSPHORUS / POTASSIUM / SODIUM / TOTAL BILIRUBIN / TOTAL PROTEIN / URIC ACID / CHOLESTEROL: tissue Plasma
[1] = 35 mg/kg, 120 h, dose level Low, time 5 day
[2] = 1300 mg/kg, 72 h, dose level High, time 3 day
[3] = 1300 mg/kg, 120 h, dose level High, time 5 day

For `Nc1ccn([C@@H]2CS[C@H](CO)O2)c(=O)n1` [LAMIVUDINE], the “ABSOLUTE BASOPHIL” value [1] was 0 CELLS/uL, the “ABSOLUTE EOSINOPHIL” value [1] was 0 CELLS/uL and the “ABSOLUTE LYMPHOCYTE” value [1] was 6530 CELLS/uL. For the same compound, the “ABSOLUTE MONOCYTE” value [1] was 98.67 CELLS/uL, the “ABSOLUTE SEGMENTED NEUTROPHIL” value [1] was 638 CELLS/uL and the BASOPHIL [1] was 0%. The EOSINOPHIL [1] was 0%, the “ERYTHROCYTE COUNT” value [1] was 5.57 x10E6/uL and the HEMATOCRIT [1] was 34.73%. For the same compound, the HEMOGLOBIN [1] was 13.6 G/DL, the “LEUKOCYTE COUNT” value [1] was 7.27 x10E3/uL and the LYMPHOCYTE [1] was 89.67%. For the same compound, the “MEAN CORPUSCULAR HEMOGLOBIN” value [1] was 24.43 pg, the “MEAN CORPUSCULAR HEMOGLOBIN CONCENTRATION” value [1] was 39.2 G/DL and the MONOCYTE [1] was 1.33%. For the same compound, the NEUTROPHIL [1] was 9%, the “NUCLEATED RED BLOOD CELLS” value [1] was 0.33 /100WBC and the “PLATELET COUNT” value [1] was 1079.33 x10E3/uL. The “ALANINE AMINOTRANSFERASE” value [1] was 45.33 u/L, the ALBUMIN [1] was 4.1 G/DL and the “ALKALINE PHOSPHATASE” value [1] was 359.67 u/L. The “ASPARTATE AMINOTRANSFERASE” value [1] was 82.67 u/L, the “BLOOD UREA NITROGEN” value [1] was 16.67 mg/dL and the “CARBON DIOXIDE” value [1] was 31.33 mmol/L. For the same compound, the CHLORIDE [1] was 100.33 MEQ/L, the “CREATINE PHOSPHOKINASE” value [1] was 391.67 u/L and the CREATININE [1] was 0.16 mg/dL. The GLUCOSE [1] was 152 mg/dL, the “LACTATE DEHYDROGENASE” value [1] was 141.33 u/L and the LIPASE [1] was 8.33 u/L. The PHOSPHORUS [1] was 11.47 mg/dL, the POTASSIUM [1] was 5.48 MEQ/L and the SODIUM [1] was 144.47 MEQ/L. For the same compound, the “TOTAL BILIRUBIN” value [1] was 0.2 mg/dL, the “TOTAL PROTEIN” value [1] was 6.13 G/DL and the “URIC ACID” value [1] was 0.6 mg/dL. For the same compound, the “ABSOLUTE BASOPHIL” value [2] was 0 CELLS/uL, the “ABSOLUTE EOSINOPHIL” value [2] was 0 CELLS/uL and the “ABSOLUTE LYMPHOCYTE” value [2] was 11276.67 CELLS/uL. The “ABSOLUTE MONOCYTE” value [2] was 81 CELLS/uL, the “ABSOLUTE SEGMENTED NEUTROPHIL” value [2] was 842.33 CELLS/uL and the BASOPHIL [2] was 0%. For the same compound, the EOSINOPHIL [2] was 0%, the “ERYTHROCYTE COUNT” value [2] was 5.54 x10E6/uL and the HEMATOCRIT [2] was 34.33%. For the same compound, the HEMOGLOBIN [2] was 13.53 G/DL, the “LEUKOCYTE COUNT” value [2] was 12.2 x10E3/uL and the LYMPHOCYTE [2] was 92.33%. For the same compound, the “MEAN CORPUSCULAR HEMOGLOBIN” value [2] was 24.43 pg, the “MEAN CORPUSCULAR HEMOGLOBIN CONCENTRATION” value [2] was 39.4 G/DL and the MONOCYTE [2] was 0.67%. The NEUTROPHIL [2] was 7%, the “NUCLEATED RED BLOOD CELLS” value [2] was 0.33 /100WBC and the “PLATELET COUNT” value [2] was 1155.33 x10E3/uL. The “ALANINE AMINOTRANSFERASE” value [2] was 45.67 u/L, the ALBUMIN [2] was 4 G/DL and the “ALKALINE PHOSPHATASE” value [2] was 373.67 u/L. For the same compound, the “ASPARTATE AMINOTRANSFERASE” value [2] was 80 u/L, the “BLOOD UREA NITROGEN” value [2] was 10.67 mg/dL and the “CARBON DIOXIDE” value [2] was 27 mmol/L. The CHLORIDE [2] was 102.33 MEQ/L, the CHOLESTEROL [2] was 78.67 mg/dL and the “CREATINE PHOSPHOKINASE” value [2] was 337 u/L. The CREATININE [2] was 0.17 mg/dL, the GLUCOSE [2] was 141 mg/dL and the “LACTATE DEHYDROGENASE” value [2] was 297.67 u/L. The LIPASE [2] was 9.67 u/L, the PHOSPHORUS [2] was 11.83 mg/dL and the POTASSIUM [2] was 6.19 MEQ/L. For the same compound, the SODIUM [2] was 143.47 MEQ/L, the “TOTAL BILIRUBIN” value [2] was 0.13 mg/dL and the “TOTAL PROTEIN” value [2] was 5.8 G/DL. For the same compound, the “URIC ACID” value [2] was 1.57 mg/dL, the “ABSOLUTE BASOPHIL” value [3] was 0 CELLS/uL and the “ABSOLUTE EOSINOPHIL” value [3] was 61 CELLS/uL. The “ABSOLUTE LYMPHOCYTE” value [3] was 14479 CELLS/uL, the “ABSOLUTE MONOCYTE” value [3] was 224.33 CELLS/uL and the “ABSOLUTE SEGMENTED NEUTROPHIL” value [3] was 1569 CELLS/uL. The BASOPHIL [3] was 0%, the EOSINOPHIL [3] was 0.33% and the “ERYTHROCYTE COUNT” value [3] was 5.68 x10E6/uL. The HEMATOCRIT [3] was 36.2%, the HEMOGLOBIN [3] was 13.93 G/DL and the “LEUKOCYTE COUNT” value [3] was 16.33 x10E3/uL. The LYMPHOCYTE [3] was 88.67%, the “MEAN CORPUSCULAR HEMOGLOBIN” value [3] was 24.5 pg and the “MEAN CORPUSCULAR HEMOGLOBIN CONCENTRATION” value [3] was 38.5 G/DL. For the same compound, the MONOCYTE [3] was 1.33%, the NEUTROPHIL [3] was 9.67% and the “NUCLEATED RED BLOOD CELLS” value [3] was 0 /100WBC. For the same compound, the “PLATELET COUNT” value [3] was 1204.33 x10E3/uL, the “ALANINE AMINOTRANSFERASE” value [3] was 50 u/L and the ALBUMIN [3] was 3.9 G/DL. For the same compound, the “ALKALINE PHOSPHATASE” value [3] was 303.67 u/L, the “ASPARTATE AMINOTRANSFERASE” value [3] was 84.33 u/L and the “BLOOD UREA NITROGEN” value [3] was 15 mg/dL. The “CARBON DIOXIDE” value [3] was 24.33 mmol/L, the CHLORIDE [3] was 102 MEQ/L and the CHOLESTEROL [3] was 70 mg/dL. For the same compound, the “CREATINE PHOSPHOKINASE” value [3] was 295.33 u/L, the CREATININE [3] was 0.2 mg/dL and the GLUCOSE [3] was 162.67 mg/dL. The “LACTATE DEHYDROGENASE” value [3] was 239 u/L, the LIPASE [3] was 11 u/L and the PHOSPHORUS [3] was 11.9 mg/dL. The POTASSIUM [3] was 6.04 MEQ/L, the SODIUM [3] was 143.87 MEQ/L and the “TOTAL BILIRUBIN” value [3] was 0.17 mg/dL. For the same compound, the “TOTAL PROTEIN” value [3] was 5.73 G/DL and the “URIC ACID” value [3] was 1.53 mg/dL.
